Reference: patent US20240382610A1 (priority 2021, published 2024)

Tests used:
[1] = tested on: CD19+ B cells; assay: Free CpG activity on CD40 expression by CD19+ B cells in human PBMCs; type: cell-based; settings: PBMC from three donors (D559, D804, D643)
Experimental: Trima residuals were received from Vitalant and diluted 1:2 with Phosphate Buffered Saline (PBS, Gibco). Diluted blood was split into two tubes and underplayed with 15 mL Ficoll-Paque (GE Healthcare). Tubes were centrifuged for 30 minutes at 400×g. PBMCs were collected from the interface, resuspended and washed in FACS buffer (PBS with 0.5% Bovine Serum Albumin (Gibco)). After one wash, PBMCs were resuspended in Complete RPMI (RPMI+10% FBS).
PBMCs were immediately plated onto a 96-well format (500K/well) in Complete RPMI. Five-fold serial dilutions were added to the cells from 1 uM to […] of CpG oligonucleotides at 37° C. under 5% CO2 for 48 hours. Cells were pelleted by centrifugation for five minutes at 400×g and stained at 4° C. in Fixable Viability Dye eFluor 780 (Thermo Fisher) diluted 1:4000 in PBS. Cells were centrifuged and stained at 4° C. in FACS buffer for 30 minutes containing FcR Blocking Reagent (Miltenyi Biotec), anti-CD19, anti-CD20, anti-CD40, anti-HLADR and anti-CD80. Cells were centrifuged and washed twice in FACS buffer and fixed in 0.5% paraformaldehyde. Cells were analyzed on Attune NxT Flow Cytometer (Thermo Fisher), with subsequent data analysis by Flowjo 10.7 (Treestar). Dead cells were excluded by gating on the eFluor 780-negative population. B cells were identified as CD19^+CD20^+cells and level of activation marker was assessed by median fluorescent intensity. […]

[2] = tested on: Ramos-Blue Cells NF-kB/AP-1 Reporter B lymphocytes; assay: Ramos NFkb Reporter Assay; type: cell-based; settings: 24 h stimulation, OD655
[3] = tested on: DLD-1 nectin-4 tumor cells; type: cell-based, human

CpG 7-7: "CpG 7-7 (7-7b; SEQ ID NO:35)", free CpG oligonucleotide of series 7 (DNA NCGTCGTGTCGTTT; modified_base 1 OTHER; 5-Bromo-2'-deoxyuridine; modified_base 1..4 OTHER; phosphorothioate linkages; modified_base 4..5 OTHER; phosphotriester linker-PEG24-NH2; modified_base 5..9 OTHER; modified_base 9..10 OTHER; phosphorodithioate linkage; modified_base 10..14 OTHER; modified_base 13..14 OTHER; 2'-O-methyl-thymidine; misc_feature 14 3' spacer)
activity as observed by CD40 expression [1]: higher activities
activity in NFkb reporter assay [2]: significantly higher activity
phagocytosis of DLD-1 nectin-4 tumor cells by macrophages [3]: did not appear to result in detectable phagocytosis
